Results: ChEMBL document CHEMBL6153058, “Pyrrolopyrazine Compounds as ERK5 Inhibitors for Treating Cancer” (ACS Med Chem Lett, 2025)
pIC50: −log10 of the molar value.

Molecular target: Mitogen-activated protein kinase 7 (Homo sapiens, UniProt Q13164)
Test: Inhibition of ERK5 in human SN12C cells assessed as reduction in luminescence signal by bright glo reagent based luminescent cell assay

Mitogen-activated protein kinase 7, sequence (Q13164 whole entry): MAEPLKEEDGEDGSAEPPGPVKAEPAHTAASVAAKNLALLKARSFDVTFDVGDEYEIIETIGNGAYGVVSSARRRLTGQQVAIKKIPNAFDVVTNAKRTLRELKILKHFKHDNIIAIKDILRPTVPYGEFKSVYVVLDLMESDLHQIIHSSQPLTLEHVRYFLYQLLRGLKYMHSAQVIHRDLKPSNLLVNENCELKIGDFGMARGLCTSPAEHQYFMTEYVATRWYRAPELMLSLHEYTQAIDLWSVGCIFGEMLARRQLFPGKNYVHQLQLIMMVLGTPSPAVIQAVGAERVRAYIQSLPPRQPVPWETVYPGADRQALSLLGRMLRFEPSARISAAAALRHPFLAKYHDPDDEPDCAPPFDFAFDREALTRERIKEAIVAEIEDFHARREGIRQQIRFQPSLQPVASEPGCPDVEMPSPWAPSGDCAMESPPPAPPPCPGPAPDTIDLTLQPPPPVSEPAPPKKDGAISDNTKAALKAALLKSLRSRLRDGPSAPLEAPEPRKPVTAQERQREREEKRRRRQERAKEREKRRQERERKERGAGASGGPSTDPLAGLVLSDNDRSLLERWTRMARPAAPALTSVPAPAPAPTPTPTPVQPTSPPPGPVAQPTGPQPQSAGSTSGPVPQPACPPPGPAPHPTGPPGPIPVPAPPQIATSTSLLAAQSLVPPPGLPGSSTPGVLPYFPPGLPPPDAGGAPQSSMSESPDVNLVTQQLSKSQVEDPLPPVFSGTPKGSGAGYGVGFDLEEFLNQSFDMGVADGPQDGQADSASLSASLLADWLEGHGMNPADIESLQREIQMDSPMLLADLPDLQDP

SMILES	pIC50
Nc1cc(OC(F)(F)F)ccc1C(=O)N1CCC(c2c[nH]c3ncc([C@H]4CC[C@H](O)CC4)nc23)CC1	7.77
Nc1cc(OC(F)(F)F)ccc1C(=O)N1CCC(c2c[nH]c3ncc(C4CCOC4)nc23)CC1 (configuration not stated)	7.68
